This passage reports IC50, Ki and melting point results from patent US8202897B2, “Inhibitors of glutaminyl cyclases” (Probiodrug AG, priority 2007, dated 2012).

In data set [1] the target is glutaminyl cyclase (QC) (Homo sapiens, UniProt Q16769). Description: QC inhibitor assay (fluorometric/spectrophotometric QC activity assay with inhibitor added).
Sequence of glutaminyl cyclase (QC) (Q16769 29-361): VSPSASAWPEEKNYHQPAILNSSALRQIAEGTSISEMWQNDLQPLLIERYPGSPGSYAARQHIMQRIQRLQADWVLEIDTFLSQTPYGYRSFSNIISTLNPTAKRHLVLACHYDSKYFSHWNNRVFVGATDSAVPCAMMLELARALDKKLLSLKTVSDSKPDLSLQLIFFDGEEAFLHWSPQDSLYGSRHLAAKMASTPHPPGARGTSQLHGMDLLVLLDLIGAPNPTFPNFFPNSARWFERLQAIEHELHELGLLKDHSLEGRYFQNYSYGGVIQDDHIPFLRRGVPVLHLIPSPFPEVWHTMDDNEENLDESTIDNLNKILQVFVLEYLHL
Procedure: All measurements were performed with a BioAssay Reader HTS-7000Plus for microplates (Perkin Elmer) at 30° C. QC activity was evaluated fluorometrically using H-Gln-βNA. The samples consisted of 0.2 mM fluorogenic substrate, 0.25 U pyroglutamyl aminopeptidase (Unizyme, Hørsholm, Denmark) in 0.2 M Tris/HCl, pH 8.0 containing 20 mM EDTA and an appropriately diluted aliquot of QC in a final volume of 250 μl. Excitation/emission wavelengths were 320/410 nm. The assay reactions were initiated by addition of glutaminyl cyclase. QC activity was determined from a standard curve of β-naphthylamine under assay conditions. One unit is defined as the amount of QC catalyzing the formation of 1 μmol pGlu-βNA from H-Gln-βNA per minute under the described conditions.
In a second fluorometric assay, QC was activity determined using H-Gln-AMC as substrate. Reactions were carried out at 30° C. utilizing the NOVOStar reader for microplates (BMG labtechnologies). The samples consisted of varying concentrations of the fluorogenic substrate, 0.1 U pyroglutamyl aminopeptidase (Qiagen) in 0.05 M Tris/HCl, pH 8.0 containing 5 mM EDTA and an appropriately diluted aliquot of QC in a final volume of 250 μl. Excitation/emission wavelengths were 380/460 nm. The assay reactions were initiated by addition of glutaminyl cyclase. […] The kinetic data were evaluated using GraFit software.
Samples consisted of the respective QC substrate, 0.3 mM NADH, 14 mM α-Ketoglutaric acid and 30 U/ml glutamate dehydrogenase in a final volume of 250 μl. […] All samples were measured at 30° C., using either the [sequence]luor Plus or the Sunrise (both from TECAN) reader for microplates. Kinetic data was evaluated using GraFit software.
For inhibitor testing, the sample composition was the same as described above, except of the putative inhibitory compound added. For a rapid test of QC-inhibition, samples contained 4 mM of the respective inhibitor and a substrate concentration at 1 KM. For detailed investigations of the inhibition and determination of Ki-values, influence of the inhibitor on the auxiliary enzymes was investigated first. […] The inhibitory constant was evaluated by fitting the set of progress curves to the general equation for competitive inhibition using GraFit software.

For the compound `O=[N+]([O-])/C=C(\NCCCn1ccnc1)Nc1ccc2c(c1)OCO2` [Example 9, N-(1-(3-(1H-imidazol-1-yl)propylamino)-2-nitrovinyl)benzo[d][1.3]dioxol-5-amine], in data set [1], 7.93 µM corresponded to half-maximal inhibition (IC50) and the Ki turned out to be 0.95 µM.
The matching figures for `COc1ccc(N/C(=C/[N+](=O)[O-])NCCCn2ccnc2)c(OC)c1` [Example 10, N-(1-(3-(1H-imidazol-1-yl)propylamino)-2-nitrovinyl)-2.4-dimethoxy-benzenamine]: 8.89 µM and 0.92 µM.
As for `CCCCN/C(=C/[N+](=O)[O-])NCCCn1ccnc1` [Example 1, N-(3-(1H-imidazol-1-yl)propyl)-N-butyl-2-nitroethene-1.1-diamine], in data set [1], the IC50 was found to be 13.2 µM and the Ki turned out to be 2.19 µM.
Turning to `COc1cc(N/C(=C/[N+](=O)[O-])NCCCn2ccnc2)cc(OC)c1OC` [Example 11, N-(1-(3-(1H-imidazol-1-yl)propylamino)-2-nitrovinyl)-3.4.5-trimethoxy-benzenamine], the melting point is 41 to 43 °C. In data set [1], this compound showed an IC50 of 6.41 µM and a Ki of 0.74 µM.

One may read the IC50 as the concentration that gives 50% inhibition. Lower therefore signals greater potency. The term Ki denotes a measure of affinity in units of concentration, obtained from inhibition or displacement. High values mean lower affinity, low ones higher affinity. As a reminder, the melting point is the temperature, or range, at which the solid turns liquid.
